Experimental data taken from patent US20250230138A1, “COMPOUNDS HAVING A T-STRUCTURE FORMED BY AT LEAST FOUR CYCLES FOR USE IN THE TREATMENT OF CANCER AND OTHER INDICATIONS” (TheRas, Inc., priority 2022, published 2025).
pIC50: −log10 of the molar value. Where two headings read alike, the source gives them in different places.

Assays:
[1] = system: pAKT in BT474 cells; assay: Cell-based pAKT HTRF assay in BT474 cells; settings: BT474 cells, 4 hr incubation, Compounds 10-999, read-out: pAKT inhibition IC50 in BT474 cells
Procedure, shortened: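 BT474 cells in DMEM/10% FBS were treated the day after seeding with a 9-point, 3-fold compound series from 3 μM (0.25% DMSO) for 4 hr. Lysates were mixed with d2 and Eu cryptate anti-pAKT antibodies and incubated 4-24 h at room temperature. HTRF was read with excitation at 320 nm and emission at 615 nm.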

[2] = biological target: Cys242 in human PIK3CA (157-299) (Homo sapiens (Human), UniProt P42336); assay: Covalent modification assay using MALDI-TOF MS; format: biochemical; settings: 4 h reaction time point; 3.33 μM protein target, 1:7.5 protein to compound ratio (compounds 1-852)
Procedure, shortened: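 Covalent adduct formation was read by linear-mode MALDI-TOF with sinapinic acid matrix, reported as modified-protein peak height divided by total protein peak heights. Reactions held PIK3CA (157-299) at 1 or 3.33 μM in HEPES/NaCl/MgCl2 buffer, pH 7.3, sampled after 15 min to 4 h at room temperature.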

Chain of Cys242 in human PIK3CA (157-299) (P42336 157-299): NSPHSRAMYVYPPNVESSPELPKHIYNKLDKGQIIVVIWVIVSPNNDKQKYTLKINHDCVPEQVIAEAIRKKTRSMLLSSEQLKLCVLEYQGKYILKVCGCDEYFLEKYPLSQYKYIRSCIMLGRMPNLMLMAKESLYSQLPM

pIC50 [1]	pIC50 ([1]; Homo sapiens, BT-474)	SMILES	% of modification [2]
6.00 to 7.00	–	C=CC(=O)N1Cc2cc(-c3nc(-c4cnn(C)c4)c4ccsc4c3-c3c(F)cc(F)cc3OC[C@@H](C)O)nn2[C@@H](C)C1 [Compound 581]	D (percent of modification <25%)
> 7.00	–	C=CC(=O)N1Cc2cc(-c3nc(-c4cnn(C)c4)c4ccsc4c3-c3c(F)cc(F)cc3OC[C@@H](C)O)nn2[C@@H](C)C1 [Compound 582]	A (percent of modification of PIK3CA protein ≥75%)
> 7.00	–	C=CC(=O)N1C[C@H](C)n2nc(-c3nc(-c4cnn(C)c4)c4ccsc4c3-c3c(F)cc(F)cc3OCCOC)cc2[C@H]1C [Compound 583]	A (percent of modification of PIK3CA protein ≥75%)
> 7.00	–	C=CC(=O)N1CCn2nc(-c3nc(-c4cnn(C)c4)c4ccsc4c3-c3c(F)cc(F)cc3OCCOC)cc2[C@H]1C [Compound 584]	A (percent of modification of PIK3CA protein ≥75%)
> 7.00	–	C=CC(=O)N1Cc2cc(-c3nc(-c4ccc5c(c4)CCN(C)C5)c4ccsc4c3-c3c(F)cc(F)cc3OC[C@@H](C)O)nn2[C@@H](C)C1 [Compound 589]	D (percent of modification <25%)
> 7.00	–	C=CC(=O)N1Cc2cc(-c3nc(-c4ccc5c(c4)CCN(C)C5)c4ccsc4c3-c3c(F)cc(F)cc3OC[C@@H](C)O)nn2[C@@H](C)C1 [Compound 590]	A (percent of modification of PIK3CA protein ≥75%)
–	> 7.00	C=CC(=O)N1C[C@H](C)n2nc(-c3nc(-c4ccc5c(c4)CCN(C)C5)c4ccsc4c3-c3c(F)cc(F)cc3OCCOC)cc2[C@@H]1C [Compound 601, 1-[(4S,7S)-2-[7-[2,4-difluoro-6-(2-methoxyethoxy)phenyl]-4-(2-methyl-3,4-dihydro-1H-isoquinolin-6-yl)thieno[3,2-c]pyridin-6-yl]-4,7-dimethyl-6,7-dihydro-4H-pyrazolo[1,5-a]pyrazin-5-yl]prop-2-en-1-one]	A (percent of modification of PIK3CA protein ≥75%)
> 7.00	–	C=CC(=O)N1C[C@H](C)n2nc(-c3nc(-c4ccc5ncn(C)c5c4)c4ccsc4c3-c3c(F)cc(F)cc3OCCOC)cc2[C@@H]1C [Compound 602]	A (percent of modification of PIK3CA protein ≥75%)
5.52 to 6.00	–	C=CC(=O)N1C[C@H](C)n2nc(-c3nc(-c4cnn(C)c4)c4ccsc4c3-c3c(F)cc(F)cc3OCCOC)cc2[C@@H]1C [Compound 603]	D (percent of modification <25%)
> 7.00	–	C=CC(=O)N1C[C@H](C)n2nc(-c3nc(-c4ccc5ncn(C)c5c4)c4ccsc4c3-c3c(F)cc(F)cc3OCCOC)cc2[C@H]1C [Compound 604]	A (percent of modification of PIK3CA protein ≥75%)
> 7.00	–	C=CC(=O)N1Cc2cc(-c3nc(-c4ccc5c(c4)CCN(C)C5)c4ccsc4c3-c3c(F)cc(F)cc3OC[C@@H](C)O)nn2C[C@H]1C [Compound 605]	A (percent of modification of PIK3CA protein ≥75%)
5.52 to 6.00	–	C=CC(=O)N1Cc2cc(-c3nc(-c4ccc5c(c4)CCN(C)C5)c4ccsc4c3-c3c(F)cc(F)cc3OC[C@@H](C)O)nn2C[C@H]1C [Compound 606]	D (percent of modification <25%)
> 7.00	–	C=CC(=O)N1C[C@H](C)n2nc(-c3nc(-c4cnn(C)c4)c4ccsc4c3-c3c(F)cc(F)cc3OCCOC)cc2[C@@H]1C [Compound 607]	A (percent of modification of PIK3CA protein ≥75%)
6.00 to 7.00	–	C=CC(=O)N1Cc2cc(-c3nc(-c4ccc5c(cnn5C)c4)c4ccsc4c3-c3c(F)cc(F)cc3OC[C@@H](C)O)nn2[C@@H](C)C1 [Compound 608]	D (percent of modification <25%)
> 7.00	–	C=CC(=O)N1Cc2cc(-c3nc(-c4ccc5c(cnn5C)c4)c4ccsc4c3-c3c(F)cc(F)cc3OC[C@@H](C)O)nn2[C@@H](C)C1 [Compound 609]	A (percent of modification of PIK3CA protein ≥75%)
6.00 to 7.00	–	C=CC(=O)N1Cc2cc(-c3nc(-c4ccc5ncn(C)c5c4)c4ccsc4c3-c3c(F)cc(F)cc3O[C@H](C)CO)nn2C[C@H]1C [Compound 611]	D (percent of modification <25%)
> 7.00	–	C=CC(=O)N1CCn2nc(-c3nc(-c4ccc5c(c4)CNC5=O)c4ccsc4c3-c3c(F)cc(F)cc3OCCOC)cc2[C@H]1C [Compound 617, 5-((S)-6-((R)-5-acryloyl-4-methyl-4,5,6,7-tetrahydropyrazolo[1,5-a]pyrazin-2-yl)-7-(2,4-difluoro-6-(2-methoxyethoxy)phenyl)thieno[3,2-c]pyridin-4-yl)isoindolin-1-one]	A (percent of modification of PIK3CA protein ≥75%)
5.52 to 6.00	–	C=CC(=O)N1Cc2cc(-c3nc(-c4cnnc(C)c4)c4ccsc4c3-c3c(F)cc(F)cc3OCCOC)nn2C[C@H]1C [Compound 633]	D (percent of modification <25%)

pIC50 [1]	pIC50 ([1]; Homo sapiens, BT-474)	SMILES	% of modification [2]
–	> 7.00	C=CC(=O)N1Cc2cc(-c3nc(-c4ccc5c(c4)CCN(C)C5)c4ccsc4c3-c3c(F)cc(F)cc3OC(CF)CF)nn2C[C@H]1C [Compound 634, 1-[(6R)-2-[7-[2,4-difluoro-6-[2-fluoro-1-(fluoromethyl)ethoxy]phenyl]-4-(2-methyl-3,4-dihydro-1H-isoquinolin-6-yl)thieno[3,2-c]pyridin-6-yl]-6-methyl-6,7-dihydro-4H-pyrazolo[1,5-a]pyrazin-5-yl]prop-2-en-1-one]	A (percent of modification of PIK3CA protein ≥75%)
> 7.00	–	C=CC(=O)N1Cc2cc(-c3nc(-c4cn(C)cn4)c4ccsc4c3-c3c(F)cc(F)cc3OCC(C)O)nn2C(C)C1 (stereo not shown) [Compound 639]	A (percent of modification of PIK3CA protein ≥75%)
> 7.00	–	C=CC(=O)N1CCn2nc(-c3nc(-c4cnn(C)c4)c4ccsc4c3-c3c(F)cc(F)cc3OCCO)cc2[C@@H]1C [Compound 640]	A (percent of modification of PIK3CA protein ≥75%)
6.00 to 7.00	–	C=CC(=O)N1CCn2nc(-c3nc(-c4cnn(C)c4)c4ccsc4c3-c3c(F)cc(F)cc3OCCO)cc2[C@H]1C [Compound 641]	C (25%≤percent of modification <50%)
> 7.00	–	C=CC(=O)N1Cc2cc(-c3nc(-c4ccc5nncn5c4)c4ccsc4c3-c3c(F)cc(F)cc3OCC(C)O)nn2C(C)C1 (stereo not shown) [Compound 643]	A (percent of modification of PIK3CA protein ≥75%)
> 7.00	–	C=CC(=O)N1CCn2nc(-c3nc(-c4ccc5nn(C)cc5c4)c4ccsc4c3-c3c(F)cc(F)cc3OCCO)cc2[C@@H]1C [Compound 644]	A (percent of modification of PIK3CA protein ≥75%)
> 7.00	–	C=CC(=O)N1CCn2nc(-c3nc(-c4ccc5ncn(C)c5c4)c4ccsc4c3-c3c(F)cc(F)cc3OCCO)cc2[C@@H]1C [Compound 645]	A (percent of modification of PIK3CA protein ≥75%)
> 7.00	–	C=CC(=O)N1CCn2nc(-c3nc(-c4ccc5nn(C)cc5c4)c4ccsc4c3-c3c(F)cc(F)cc3OC[C@@H](C)O)cc2[C@@H]1C [Compound 646]	A (percent of modification of PIK3CA protein ≥75%)
> 7.00	–	C=CC(=O)N1CCn2nc(-c3nc(-c4ccc5ncn(C)c5c4)c4ccsc4c3-c3c(F)cc(F)cc3OC[C@@H](C)O)cc2[C@@H]1C [Compound 647]	A (percent of modification of PIK3CA protein ≥75%)
> 7.00	–	C=CC(=O)N1CCn2nc(-c3nc(-c4cnn(C)c4)c4ccsc4c3-c3c(F)cc(F)cc3OCCOC)cc2[C@@H]1C [Compound 649]	A (percent of modification of PIK3CA protein ≥75%)
> 7.00	–	C=CC(=O)N1CCn2nc(-c3nc(-c4ccc5nn(C)cc5c4)c4ccsc4c3-c3c(F)cc(F)cc3OCCO)cc2[C@H]1C [Compound 650]	C (25%≤percent of modification <50%)
> 7.00	–	C=CC(=O)N1CCn2nc(-c3nc(-c4ccc5c(c4)ncn5C)c4ccsc4c3-c3c(F)cc(F)cc3OCCO)cc2[C@H]1C [Compound 651]	C (25%≤percent of modification <50%)
> 7.00	–	C=CC(=O)N1CCn2nc(-c3nc(-c4ccc5c(cnn5C)c4)c4ccsc4c3-c3c(F)cc(F)cc3OCCO)cc2[C@H]1C [Compound 652]	C (25%≤percent of modification <50%)
> 7.00	–	C=CC(=O)N1CCn2nc(-c3nc(-c4ccc5ncn(C)c5c4)c4ccsc4c3-c3c(F)cc(F)cc3OCCO)cc2[C@H]1C [Compound 653]	B (50%<percent of modification <75%)
> 7.00	–	C=CC(=O)N1CCn2nc(-c3nc(-c4ccc5oc(C)nc5c4)c4ccsc4c3-c3c(F)cc(F)cc3OCCO)cc2[C@@H]1C [Compound 654]	A (percent of modification of PIK3CA protein ≥75%)
> 7.00	–	C=CC(=O)N1CCn2nc(-c3nc(-c4ccc5oc(C)nc5c4)c4ccsc4c3-c3c(F)cc(F)cc3OC[C@@H](C)O)cc2[C@@H]1C [Compound 655]	A (percent of modification of PIK3CA protein ≥75%)
6.00 to 7.00	–	C=CC(=O)N1CCn2nc(-c3nc(-c4ccc5cnncc5c4)c4ccsc4c3-c3c(F)cc(F)cc3OCCO)cc2C1C (stereo not shown) [Compound 660]	C (25%≤percent of modification <50%)
